Experiment [1] concerns Acinetobacter baumannii NCTC 13420. Nature of the experiment: MIC, broth microdilution (CLSI) versus planktonic bacteria. The experiment is classed as cell-based. The following applies: NCTC13420; Acinetobacter baumannii NCTC 13420; 16-20 h; mode of three independent experiments; read-out: MIC, Ab NCTC 13420.
The subject of experiment [2] is Acinetobacter baumannii ATCC 19606. The experiment is described as above. The experiment is classed as cell-based. The settings on record: ATCC19606; Acinetobacter baumannii ATCC 19606; 16-20 h; mode of three independent experiments; read-out: MIC, Ab ATCC 19606.
Experiment [3] has as its system Enterobacter cloacae NCTC 13406. The experiment is described as above. The experiment is classed as cell-based. The settings on record: NCTC13406; Enterobacter cloacae NCTC 13406; 16-20 h; mode of three independent experiments; read-out: MIC, Ecl NCTC 13406.
Experiment [4] has as its system Escherichia coli ATCC 25922. Described as above. The experiment is classed as cell-based. The settings on record: ATCC25922; Escherichia coli ATCC 25922; 16-20 h; mode of three independent experiments; read-out: MIC, Ec ATCC 25922.
In experiment [5] the test system is E. coli ATCC BAA-2452. The experiment is described as above. The experiment is classed as cell-based. The settings on record: Escherichia coli ATCC BAA-2452; 16-20 h; mode of three independent experiments; read-out: MIC, Ec ATCC BAA 2452.
Experiment [6] deals with E. coli NCTC 13476. Described as above. The settings on record: NCTC13476; Escherichia coli NCTC 13476; 16-20 h; mode of three independent experiments; read-out: MIC, Ec NCTC 13476. The experiment is classed as cell-based.
For experiment [7], the system named is E. coli MG1655. The experiment is described as above. The experiment is classed as cell-based, Escherichia coli. The following applies: Escherichia coli, MG1655, read-out: MIC, Ec MG1655 WT.
Experiment [8] deals with Haemophilus influenzae ATCC 49247. The experiment is described as above. The following applies: ATCC49247; Haemophilus influenzae ATCC 49247; 16-20 h; mode of three independent experiments; read-out: MIC, Hi ATCC 49247. The experiment is classed as cell-based.
The test system of experiment [9] is Pseudomonas aeruginosa ATCC 27853. The experiment is described as above. The experiment is classed as cell-based. The settings on record: ATCC27853; Pseudomonas aeruginosa ATCC 27853; 16-20 h; mode of three independent experiments; read-out: MIC, Pa ATCC 27853.
The subject of experiment [10] is Staphylococcus aureus ATCC 29213. The description is as above. The experiment is classed as cell-based. The following applies: ATCC29213; Staphylococcus aureus ATCC 29213; 16-20 h; mode of three independent experiments; read-out: MIC, Sa ATCC 29213.
The test system of experiment [11] is E. coli MG1655 S83L. The experiment is classed as cell-based, Escherichia coli. The following applies: compared to the isogenic parent strain E. coli MG1655; S83L mutation on DNA gyrase subunit GyrA.
Experiment [12] concerns E. coli MG1655 D87G. The experiment is classed as cell-based, Escherichia coli. The settings on record: compared to the isogenic parent strain E. coli MG1655; D87G mutation on DNA gyrase subunit GyrA.
The subject of experiment [13] is human hepatic cell line (HepG2 ATCC HB-8065). Nature of the experiment: Human cell viability assay (CellTiter-Glo). The following applies: Homo sapiens, HepG2, 24 h, read-out: IC50 (μg/mL) HepG2.
The subject of experiment [14] is Streptococcus pneumoniae ATCC 49619. The experiment can be described thus: MIC, broth microdilution (CLSI) versus planktonic bacteria. The experiment is classed as cell-based. The settings on record: ATCC49619; Streptococcus pneumoniae ATCC 49619; 16-20 h; mode of three independent experiments; read-out: MIC, Sp ATCC 49619. On the technique in general: Broth dilution looks for growth in wells or tubes with falling amounts of substance.

≈ marks a conversion by molar mass, not a printed value. Bounds are passed on as bounds.

For `N#Cc1cccc(-c2cccc(CN[C@H]3CC[C@H]4[C@H](C3)OC(=O)N4c3ccc4c(n3)NC(=O)CO4)n2)c1` [Compound 105, 3-[6-({[(3aS,6S,7aS)-2-oxo-3-{3-oxo-2H,3H,4H-pyrido[3,2-b][1,4]oxazin-6-yl}-octahydro-1,3-benzoxazol-6-yl]amino}methyl)pyridin-2-yl]benzonitrile], the MIC in experiment [1] is less than 1 µg/mL; in experiment [2], less than 1 µg/mL; in experiment [3], 1 to 10 µg/mL (≈ 2.01 to 20.1 µM); in experiment [4], less than 1 µg/mL; in experiment [5] it was less than 1 µg/mL; in experiment [6], 1 to 10 µg/mL (≈ 2.01 to 20.1 µM). Also, the MIC in experiment [7] is less than 1 µg/mL; in experiment [8], less than 1 µg/mL; in [9], 1 to 10 µg/mL (≈ 2.01 to 20.1 µM); in experiment [10], less than 1 µg/mL. The “Fold increase in MIC, E. coli MG1655 S83L” value in [11] is given as 1 fold. The “Fold increase in MIC, E. coli MG1655 D87G” value in experiment [12] turned out to be 1 fold. The IC50 in [13] fell in the range of 10 to 100 µg/mL (≈ 20.1 to 201 µM).

As to `NCCOc1ccc2ccc(=O)n(CCN[C@@H]3CC[C@@H]4[C@@H](C3)OC(=O)N4c3ccc4c(n3)NC(=O)CO4)c2c1` [Compound 23, 1-(2-{[(3aR,6R,7aR)-2-oxo-3-{3-oxo-2H,3H,4H-pyrido[3,2-b][1,4]oxazin-6-yl}-octahydro-1,3-benzoxazol-6-yl]amino}ethyl)-7-(2-aminoethoxy)-1,2-dihydroquinolin-2-one], the MIC is 10 to 100 µg/mL (≈ 18.7 to 187 µM) in [1]; more than 100 µg/mL in experiment [3]; less than 1 µg/mL in experiment [4]; 1 to 10 µg/mL (≈ 1.87 to 18.7 µM) in [5]; 10 to 100 µg/mL (≈ 18.7 to 187 µM) in experiment [6]; 1 to 10 µg/mL (≈ 1.87 to 18.7 µM) in experiment [7]. The MIC was more than 100 µg/mL in experiment [8], 1 to 10 µg/mL (≈ 1.87 to 18.7 µM) in experiment [9], less than 1 µg/mL in experiment [10] and 1 to 10 µg/mL (≈ 1.87 to 18.7 µM) in [14]. Moreover, the “Fold increase in MIC, E. coli MG1655 S83L” value in experiment [11] amounted to 0.5 fold. In experiment [12], the “Fold increase in MIC, E. coli MG1655 D87G” value worked out at 0.5 fold. Also, the IC50 in experiment [13] is more than 100 µg/mL.

As for `O=C1COc2ccc(N3C(=O)O[C@H]4C[C@@H](NCCn5c(=O)ccc6ncc(OC(F)F)cc65)CC[C@@H]43)nc2N1` [Compound 98, 1-(2-{[(3aS,6S,7aS)-2-oxo-3-{3-oxo-2H,3H,4H-pyrido[3,2-b][1,4]oxazin-6-yl}-octahydro-1,3-benzoxazol-6-yl]amino}ethyl)-7-(difluoromethoxy)-1,2-dihydro-1,5-naphthyridin-2-one], the MIC is less than 1 µg/mL in [1]; less than 1 µg/mL in experiment [2]; 1 to 10 µg/mL (≈ 1.84 to 18.4 µM) in experiment [3]; less than 1 µg/mL in [4]; less than 1 µg/mL in [5]; 1 to 10 µg/mL (≈ 1.84 to 18.4 µM) in experiment [6]. Besides, the MIC in experiment [7] is less than 1 µg/mL; in [8], less than 1 µg/mL; in [9] it was 1 to 10 µg/mL (≈ 1.84 to 18.4 µM); in experiment [10], less than 1 µg/mL. Moreover, the “Fold increase in MIC, E. coli MG1655 S83L” value in [11] came to 1 fold. For the same compound, the “Fold increase in MIC, E. coli MG1655 D87G” value in experiment [12] was found to be 1 fold. Moreover, the IC50 in [13] was more than 100 µg/mL.

As for `COc1cc2c(ccc(=O)n2CCN[C@H]2CC[C@H]3[C@H](C2)OC(=O)N3c2ccc3c(n2)NC(=O)CO3)cn1` [Compound 62, 1-(2-{[(3aS,6S,7aS)-2-oxo-3-{3-oxo-2H,3H,4H-pyrido[3,2-b][1,4]oxazin-6-yl}-octahydro-1,3-benzoxazol-6-yl]amino}ethyl)-7-methoxy-1,2-dihydro-1,6-naphthyridin-2-one], the MIC in experiment [1] was less than 1 µg/mL; in [2], 1 to 10 µg/mL (≈ 1.97 to 19.7 µM); in [4], less than 1 µg/mL; in experiment [5], 1 to 10 µg/mL (≈ 1.97 to 19.7 µM); in [6] it was 1 to 10 µg/mL (≈ 1.97 to 19.7 µM); in experiment [7] it was 1 to 10 µg/mL (≈ 1.97 to 19.7 µM). The MIC was 1 to 10 µg/mL (≈ 1.97 to 19.7 µM) in [8], 10 to 100 µg/mL (≈ 19.7 to 197 µM) in experiment [9], less than 1 µg/mL in experiment [10] and less than 1 µg/mL in [14]. Besides, the “Fold increase in MIC, E. coli MG1655 S83L” value in experiment [11] is given as 1 fold. For the same compound, the “Fold increase in MIC, E. coli MG1655 D87G” value in experiment [12] was determined as 0.5 fold.

`O=C1COc2ccc(N3C(=O)O[C@@H]4C[C@H](NCCn5c(=O)cnc6cc(F)c(F)cc65)CC[C@H]43)nc2N1` [Compound 70, 1-(2-{[(3aR,6R,7aR)-2-oxo-3-{3-oxo-2H,3H,4H-pyrido[3,2-b][1,4]oxazin-6-yl}-octahydro-1,3-benzoxazol-6-yl]amino}ethyl)-6,7-difluoro-1,2-dihydroquinoxalin-2-one]: the MIC in experiment [1], in experiment [3], in [4], in experiment [5], in [6] and in [7] was less than 1 µg/mL each time. Further, the MIC in [8], in experiment [9], in experiment [10] and in [14] was less than 1 µg/mL throughout. For the same compound, in experiment [11], the “Fold increase in MIC, E. coli MG1655 S83L” value worked out at 2 fold. The “Fold increase in MIC, E. coli MG1655 D87G” value in experiment [12] amounted to 4 fold. In addition, the IC50 in experiment [13] was 10 to 100 µg/mL (≈ 19.5 to 195 µM).

As to `N#Cc1cccc(-c2cccc(CN[C@H]3CC[C@H]4[C@H](C3)OC(=O)N4c3ccc4c(n3)NC(=O)CO4)c2)n1` [Compound 57, 6-[3-({[(3aS,6S,7aS)-2-oxo-3-{3-oxo-2H,3H,4H-pyrido[3,2-b][1,4]oxazin-6-yl}-octahydro-1,3-benzoxazol-6-yl]amino}methyl)phenyl]pyridine-2-carbonitrile], the MIC in [1] was less than 1 µg/mL; in experiment [2] it was less than 1 µg/mL; in experiment [3], 1 to 10 µg/mL (≈ 2.01 to 20.1 µM); in [4], less than 1 µg/mL; in [5], 1 to 10 µg/mL (≈ 2.01 to 20.1 µM); in experiment [6], 1 to 10 µg/mL (≈ 2.01 to 20.1 µM). Besides, the MIC in [7], in [8], in experiment [10] and in experiment [14] was less than 1 µg/mL in each case. In addition, the “Fold increase in MIC, E. coli MG1655 S83L” value in experiment [11] is reported as 1 fold. For the same compound, the “Fold increase in MIC, E. coli MG1655 D87G” value in experiment [12] stood at 1 fold.

As to `O=C1COc2ccc(N3C(=O)O[C@@H]4C[C@@H](NCCn5c(=O)cnc6cc(F)c(F)cc65)CC[C@@H]43)nc2N1` [Compound 22, 1-(2-{[(3aS,6S,7aR)-2-oxo-3-{3-oxo-2H,3H,4H-pyrido[3,2-b][1,4]oxazin-6-yl}-octahydro-1,3-benzoxazol-6-yl]amino}ethyl)-6,7-difluoro-1,2-dihydroquinoxalin-2-one], the MIC in experiment [1], in [2], in experiment [3], in experiment [4], in [5] and in experiment [6] was less than 1 µg/mL each time. Further, the MIC in [7] was less than 1 µg/mL; in [8], less than 1 µg/mL; in experiment [9] it was 1 to 10 µg/mL (≈ 1.95 to 19.5 µM); in experiment [10], less than 1 µg/mL; in experiment [14], less than 1 µg/mL. The “Fold increase in MIC, E. coli MG1655 S83L” value in [11] came to 2 fold. For the same compound, in experiment [12], the “Fold increase in MIC, E. coli MG1655 D87G” value was found to be 2 fold.

Turning to `O=C1COc2ccc(N3C(=O)O[C@H]4C[C@@H](NCCn5c(=O)ccc6ccc(OC(F)F)cc65)CC[C@@H]43)nc2N1` [Compound 101, 1-(2-{[(3aS,6S,7aS)-2-oxo-3-{3-oxo-2H,3H,4H-pyrido[3,2-b][1,4]oxazin-6-yl}-octahydro-1,3-benzoxazol-6-yl]amino}ethyl)-7-(difluoromethoxy)-1,2-dihydro quinolin-2-one], the MIC in experiment [1] is less than 1 µg/mL; in experiment [2], less than 1 µg/mL; in experiment [3], 1 to 10 µg/mL (≈ 1.85 to 18.5 µM); in experiment [4] it was less than 1 µg/mL; in experiment [5] it was less than 1 µg/mL; in experiment [6], less than 1 µg/mL. Besides, the MIC in experiment [7] was less than 1 µg/mL; in [9], 1 to 10 µg/mL (≈ 1.85 to 18.5 µM); in experiment [10], less than 1 µg/mL; in experiment [14], less than 1 µg/mL. Besides, the “Fold increase in MIC, E. coli MG1655 S83L” value in experiment [11] came out at 1 fold. Besides, in experiment [12], the “Fold increase in MIC, E. coli MG1655 D87G” value stood at 1 fold. The IC50 in experiment [13] was 10 to 100 µg/mL (≈ 18.5 to 185 µM).

Values taken from US10487093B2, “Heterocyclic compounds, in particular 2-oxo-4,4,5,5,6,6,7,7-octahydrobenzoxazole derivatives, and their use as antibacterial compounds” (priority 2016, dated 2019).
